Test results reported in the NIST ThermoML archive (doi:10.1016/j.tca.2005.04.030).
± gives the expanded uncertainty stated by the source.

What was measured:
[1] = xn = mol fraction of the nth substance listed; conditions: 298 K, 101 kPa, Liquid; for speed of sound: Anton Paar DSA 48; for mass density: Vibrating tube method
[2] = refractive index (Na D-line) (dimensionless); xn = mol fraction of the nth substance listed; conditions: 298 K, 101 kPa, Liquid, ATAGO RX-1000

CCCCOC(C)(C)C [butane, 1-(1,1-dimethylethoxy)-] + CCO
Conditions | mass density, [1] [kg/m3] | refractive index, [2] | speed of sound, [1] [m/s]
x1 = 0.0493 | 782.41 ± 0.22 | 1.36389 ± 0.0001 | 1141 ± 1
x1 = 0.0589 | 781.92 ± 0.22 | 1.36463 ± 0.0001 | 1139 ± 1
x1 = 0.0797 | 780.9 ± 0.22 | 1.36652 ± 0.0001 | 1139 ± 1
x1 = 0.1006 | 779.92 ± 0.22 | 1.36783 ± 0.0001 | 1136 ± 1
x1 = 0.1555 | 777.57 ± 0.21 | 1.37143 ± 0.0001 | 1133 ± 1
x1 = 0.1947 | 776.05 ± 0.21 | 1.37365 ± 9e-05 | 1132 ± 1
x1 = 0.1978 | 775.98 ± 0.21 | 1.37382 ± 9e-05 | 1132 ± 1
x1 = 0.2528 | 773.99 ± 0.2 | 1.3765 ± 9e-05 | 1129 ± 1
x1 = 0.2923 | 772.71 ± 0.2 | 1.37818 ± 9e-05 | 1127 ± 1
x1 = 0.2967 | 772.6 ± 0.2 | 1.37834 ± 9e-05 | 1128 ± 1
x1 = 0.3512 | 770.96 ± 0.19 | 1.38037 ± 8e-05 | 1125 ± 1
x1 = 0.3966 | 769.83 ± 0.19 | 1.38183 ± 8e-05 | 1124 ± 1
x1 = 0.397 | 769.71 ± 0.19 | 1.38186 ± 8e-05 | 1124 ± 1
x1 = 0.4313 | 768.83 ± 0.18 | 1.38287 ± 8e-05 | 1123 ± 1
x1 = 0.4999 | 767.3 ± 0.18 | 1.38462 ± 7e-05 | 1122 ± 1
x1 = 0.5118 | 766.95 ± 0.17 | 1.38494 ± 7e-05 | 1121 ± 1
x1 = 0.559 | 765.94 ± 0.17 | 1.38599 ± 7e-05 | 1120 ± 1
x1 = 0.5953 | 765.3 ± 0.18 | 1.38674 ± 7e-05 | 1119 ± 1
x1 = 0.5964 | 765.18 ± 0.17 | 1.38674 ± 7e-05 | 1119 ± 1
x1 = 0.6627 | 763.92 ± 0.16 | 1.38795 ± 6e-05 | 1118 ± 1
x1 = 0.6853 | 763.6 ± 0.15 | 1.38828 ± 6e-05 | 1120 ± 1
x1 = 0.7044 | 763.16 ± 0.15 | 1.38862 ± 6e-05 | 1118 ± 1
x1 = 0.7441 | 762.45 ± 0.15 | 1.3892 ± 6e-05 | 1117 ± 1
x1 = 0.7814 | 761.8 ± 0.15 | 1.3897 ± 6e-05 | 1117 ± 1
x1 = 0.7853 | 761.72 ± 0.15 | 1.38986 ± 6e-05 | 1118 ± 1
x1 = 0.8493 | 760.58 ± 0.14 | 1.3905 ± 5e-05 | 1116 ± 1
x1 = 0.9072 | 759.5 ± 0.14 | 1.39106 ± 5e-05 | 1115 ± 1
x1 = 0.9404 | 758.85 ± 0.14 | 1.39132 ± 5e-05 | 1115 ± 1
